Measured values published in ChEMBL document CHEMBL1146091, “Benzoylphenylurea sulfur analogues with potent antitumor activity” (J Med Chem, 2006).

Columns and labels:
Panc203 = assay: Cytotoxicity against human Panc203 cell line by MTT assay; format: functional, cell-based
Hs 766 = assay: Cytotoxicity against human HS766 cell line by MTT assay; format: functional, cell-based
LNCaP = assay: Cytotoxicity against human LnCaP cell line by MTT assay; format: functional, cell-based
CWR22R = assay: Cytotoxicity against human CWR22R cell line by MTT assay; format: functional, cell-based; settings: 22Rv1
PANC-1 = assay: Cytotoxicity against human Panc1 cell line by MTT assay; format: functional, cell-based
LAPC4 = assay: Cytotoxicity against human LAPC4 cell line by MTT assay; format: functional, cell-based
MIA PaCa-2 = assay: Cytotoxicity against human Miapaca2 cell line by MTT assay; format: functional, cell-based
Panc430 = assay: Cytotoxicity against human Panc430 cell line by MTT assay; format: functional, cell-based
ASPC1 = assay: Cytotoxicity against human ASPC1 cell line by MTT assay; format: functional, cell-based
Panc1005 = assay: Cytotoxicity against human Panc1005 cell line by MTT assay; format: functional, cell-based
MCF7 [1] = assay: Induction of apoptosis in human MCF7 cell line at 30 nM after 48 hrs; format: functional
MCF7 [2] = assay: Induction of apoptosis in human MCF7 cell line at 10 nM after 48 hrs; format: functional
MCF7 [3] = assay: Induction of apoptosis in human MCF7 cell line at 100 nM after 48 hrs; format: functional
Tubulin (Homo sapiens) = Tubulin (Homo sapiens) (UniProt P68371+Q9H4B7+P0DPH7+P68366+Q13509+Q71U36+P04350+Q3ZCM7+P07437+P68363+Q9BQE3+Q6PEY2+Q13885+Q9BVA1+Q9BUF5); assay: Inhibition of [3H]colchicine binding to tubulin at 5 uM; format: protein-complex assay
Tubulin = assay: Inhibition of tubulin polymerization; format: protein-complex assay, Homo sapiens

Compound | IC50 (Panc203) [nM] | IC50 (Hs 766) [nM] | IC50 (LNCaP) [nM] | IC50 (CWR22R) [nM] | IC50 (PANC-1) [nM] | IC50 (LAPC4) [nM] | IC50 (MIA PaCa-2) [nM] | IC50 (Panc430) [nM] | IC50 (ASPC1) [nM] | IC50 (Panc1005) [nM] | Activity (MCF7 [1]) [%] | Activity (MCF7 [2]) [%] | Activity (MCF7 [3]) [%] | inhibition (Tubulin (Homo sapiens)) [%] | IC50 (Tubulin) [nM]
O=C(NC(=S)Nc1ccc(Sc2ncc(Br)cn2)cc1)c1ccccc1 | > 10000 | 8500 | > 10000 | > 10000 | 9500 | 6000 | 10000 | 7500 | 10000 | > 10000 |  |  |  |  | 
Cc1cc(NC(=O)NC(=O)c2ccccc2N(C)C)ccc1Oc1ncc(Br)cn1 | 950 | 1000 | 500 | 1000 | 700 | 250 | 850 | 800 | 850 | 5000 | 19.5 | 16.1 | 27.7 |  | 
O=C(NC(=O)c1ccccc1[N+](=O)[O-])Nc1ccc(Sc2ncccn2)cc1 |  |  | 500 | 5000 |  | 600 |  |  |  |  |  |  |  |  | 
Nc1ccccc1C(=O)NC(=O)Nc1ccc(Sc2ncccn2)cc1 | 5500 | 8000 |  |  | 7500 |  | 7000 | 6500 | 6000 | > 10000 |  |  |  |  | 
O=C(NC(=O)c1ccccc1[N+](=O)[O-])Nc1ccc(Sc2ncc(Br)cn2)cc1 | 700 | 88 | 50 | 50 | 85 | 50 | 86 | 90 | 1000 | 10000 | 51.2 | 29.7 | 53.6 | 17 | 2100
O=C(NC(=O)c1ccccc1[N+](=O)[O-])Nc1ccc(Oc2ncc(Br)cn2)cc1 | > 10000 | 470 | 1000 | 5000 | 680 | 200 | 740 | 10000 | 770 | > 10000 |  |  |  | 21 | 4700
O=C(NC(=O)c1ccccc1[N+](=O)[O-])Nc1ccc([S+]([O-])c2ncc(Br)cn2)cc1 (configuration not stated) | 5500 | 6500 |  |  | 6500 |  | 8000 | 5500 | 2500 | 5500 |  |  |  |  | 
Nc1ccccc1C(=O)NC(=O)Nc1ccc(Sc2ncc(Br)cn2)cc1 | 85 | 700 | 500 | 500 | 90 | 100 | 95 | 200 | 450 | 10000 |  |  |  |  | > 40000
O=C(NC(=O)c1ccccc1)Nc1ccc(Sc2ncc(Br)cn2)cc1 | 7500 | 5500 |  |  | > 10000 |  | 5000 | 2000 | > 10000 | > 10000 |  |  |  |  | 
O=C(NC(=O)c1ccccc1[N+](=O)[O-])Nc1ccc(S(=O)(=O)c2ncc(Br)cn2)cc1 | > 10000 | > 10000 | 500 | > 10000 | > 10000 | 4000 | 6100 | > 10000 | > 10000 | > 10000 |  |  |  |  | 
COc1cc([C@@H]2c3cc4c(cc3[C@H](O)[C@H]3COC(=O)[C@H]23)OCO4)cc(OC)c1OC |  |  |  |  |  |  |  |  |  |  |  |  |  | 77 | 
Nc1ccccc1C(=O)NC(=O)Nc1ccc(Oc2ncc(Br)cn2)cc1 | > 10000 | 270 | 750 | 2000 | 3500 | 750 | 920 | > 10000 | 5200 | > 10000 |  |  |  |  | 36000
